Results on seven compounds are retold here after patent US20110319392A1, “Thiazole Sulfonamide And Oxazole Sulfonamide Kinase Inhibitors” (priority 2009, published 2011).

For one assay, the system named is BT474 tumor cells. As to the kind of experiment: Cell growth inhibition assay (CellTiter-Glo), BT474. In kind it is cell-based, Human. Conditions: Homo sapiens, BT-474, 72 h, 3 days incubation. The method, then: (§1) Human breast tumor cells (BT474) were cultured in RPMI (Mediatech […]), containing 10% FBS (JRH Biosciences 12176) and 1% penicillin-streptomycin (Invitrogen 15140). Human head and neck tumor cells (HN5) were cultured in high glucose DMEM (Mediatech 50-013-PB) containing 10% FBS and 1% penicillin-streptomycin. Human colon tumor cells (Colo205) were cultured in RPMI (Mediatech 50-020-PB) containing 10% FBS and 1% penicillin-streptomycin. Human melanoma cancer cells (SK-MEL-28) were cultured in EMEM with nonessential amino acids (Mediatech 50-011-PB) containing 10% FBS, 1% sodium pyruvate (JT Baker 3354-04), and 1% penicillin-streptomycin. Human melanoma cancer cells (A375P F11s) were cultured in RPMI (Mediatech 50-020-PB) containing 10% FBS, 1% sodium pyruvate, and 1% penicillin-streptomycin. Human colon cancer cells (HT-29) were cultured in high glucose DMEM (Mediatech 50-013-PB) containing 10% FBS and 1% penicillin-streptomycin. Human melanoma cancer cells (SK-MEL-3) were cultured in McCoy's 5A (50-025-PB) containing 15% FBS, and 1% penicillin-streptomycin. All cell lines were maintained at 37° C. in a humidified 5% CO2, 95% air incubator. Cells were harvested using trypsin/EDTA (Invitrogen 25200), counted using a haemocytometer, and plated. For 96-well assays (using white full-area NUNC plates cat. #136102), cells were plated in 105 μL at the following densities (cells/well): HNS, 500; Colo 205, 500; SK-MEL-28, 500; A375P F11s, 500; HT-29, 500; SK-MEL-3, 500; and BT474, 3000. For 384-well assays (white full-area NUNC plates, cat. #781080), cells were plated in 48 μL at the following densities (cells/well): HNS, 500; Colo205, 500; SK-MEL-28, 500; A375P F11s, 500; HT-29, 500; SK-MEL-3, 500; and BT474, 2000.
(§2) The next day, compounds were diluted as follow: For 96-well assays, 13.5 μL of compound in DMSO were diluted using nine (9) serial 1:3 dilutions of 4.5 μL in 9 of DMSO. Medium (270 μL/well of RPMI with 10% FBS and 1% penicillin-streptomycin) was added to the plates. Aliquots (7 μL) were added to cells in the final assay giving a final DMSO concentration of 0.2%. For 384-well assays, 15 μL of compound in DMSO were diluted using nine (9) serial 1:3 dilutions of 5 μL in 10 μL of DMSO, followed by a further dilution of 5 μL of compound with 95 μL of medium, of which 2 μL were added to cells in the final assay giving a final DMSO concentration of 0.2%. Cells were incubated at 37° C., 5% CO2 for 3 days.
(§3) Total ATP was measured (as a surrogate estimate of cell number) using CellTiter-Glo® reagent (Promega G7571). Briefly, plates were removed from the incubator and allowed to equilibrate to room temperature for 30 minutes. CellTiter-Glo® (25 μL or 55 μL for 384-well or 96-well assays, respectively) reagent was added to each well and plates were shaken on an orbital plate shaker for 2 minutes. Plates were incubated without shaking for a further 30 minutes and read on an LJL Analyst GT reader in luminometer mode with an integration time of 0.5 seconds per well. Percent inhibition of cell growth was calculated relative to DMSO vehicle-treated control wells. Concentration of compound required to give 50% inhibition of vehicle-treated control cell growth (IC50) was interpolated using a 4-parameter fit for determining IC50 using the following equation: Y=A +((B−A)/(1+((C/X)̂D))) where […].
A general note: Cellular ATP, detected with luciferase, serves as a proxy for viable cell number.

A further assay relates to A375P F11s tumor cells. Put plainly: Cell growth inhibition assay (CellTiter-Glo), A375P F11s. In kind it is cell-based, Human. Conditions: for IC50: Homo sapiens. On the procedure:
as §1, §2, §3

In the next assay the target is T1, EGFR (Homo sapiens, UniProt P00533).
T1 construct: made in house; host or cells: baculovirus expression system
T1 sequence (P00533 25-1210): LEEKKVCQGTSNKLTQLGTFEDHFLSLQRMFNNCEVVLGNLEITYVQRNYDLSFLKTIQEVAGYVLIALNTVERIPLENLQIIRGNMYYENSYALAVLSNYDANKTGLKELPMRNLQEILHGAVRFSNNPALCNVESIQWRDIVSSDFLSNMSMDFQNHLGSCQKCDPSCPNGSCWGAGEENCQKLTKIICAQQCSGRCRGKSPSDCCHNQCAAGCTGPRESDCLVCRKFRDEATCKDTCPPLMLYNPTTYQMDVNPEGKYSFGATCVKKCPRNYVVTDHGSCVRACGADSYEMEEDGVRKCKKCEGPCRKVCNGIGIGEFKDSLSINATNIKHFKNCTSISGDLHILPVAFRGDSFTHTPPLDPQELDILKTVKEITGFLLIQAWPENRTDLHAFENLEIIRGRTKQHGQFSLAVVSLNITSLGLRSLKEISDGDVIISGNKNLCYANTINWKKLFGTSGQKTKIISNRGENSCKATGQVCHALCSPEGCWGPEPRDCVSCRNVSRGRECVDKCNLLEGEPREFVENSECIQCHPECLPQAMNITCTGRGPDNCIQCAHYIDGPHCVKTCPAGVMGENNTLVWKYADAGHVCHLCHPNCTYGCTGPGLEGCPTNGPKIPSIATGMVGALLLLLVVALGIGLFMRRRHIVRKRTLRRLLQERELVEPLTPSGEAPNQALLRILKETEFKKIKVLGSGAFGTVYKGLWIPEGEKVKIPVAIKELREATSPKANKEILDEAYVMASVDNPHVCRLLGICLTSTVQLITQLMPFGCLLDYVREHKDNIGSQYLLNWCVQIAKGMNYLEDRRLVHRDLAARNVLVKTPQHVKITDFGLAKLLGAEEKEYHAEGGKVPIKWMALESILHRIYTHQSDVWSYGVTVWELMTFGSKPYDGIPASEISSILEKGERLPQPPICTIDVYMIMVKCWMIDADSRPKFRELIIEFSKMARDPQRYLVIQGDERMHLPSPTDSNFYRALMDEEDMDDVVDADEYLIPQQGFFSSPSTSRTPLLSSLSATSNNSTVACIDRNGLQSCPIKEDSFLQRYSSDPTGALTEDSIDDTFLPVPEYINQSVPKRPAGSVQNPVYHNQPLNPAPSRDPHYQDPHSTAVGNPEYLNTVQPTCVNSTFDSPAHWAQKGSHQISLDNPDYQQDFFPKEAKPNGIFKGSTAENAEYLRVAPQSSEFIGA
Put plainly: EGFR substrate phosphorylation assay (HTRF). In kind it is biochemical. In outline: (§4)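 Baculovirus-expressed EGFR (0.8 nM) or ErbB2 (10 nM) in enzyme mix, preincubated 1 h at 20 °C with compound (0.00027–47.6 μM final), then 90 min at 20 °C with substrate mix of 20 μM ATP, 0.8 uM biotinylated Peptide C, MnCl2, MOPS pH 7.5. Phosphotyrosine by HTRF; pIC50 reported.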
On the technique in general: In TR-FRET formats the signal depends on donor and acceptor labels being close together.

The subject of another assay is SK-MEL-28 tumor cells. As to the kind of experiment: Cell growth inhibition assay (CellTiter-Glo), SK-MEL-28. In kind it is cell-based, Human. As to conditions: Homo sapiens, SK-MEL-28, 72 h; 3 days incubation. The essentials: (§5)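 Cells plated at 500 cells/well in their growth media, dosed next day with nine-step 1:3 compound dilutions (final DMSO 0.2%), then incubated 3 days at 37° C, 5% CO2. Total ATP read by CellTiter-Glo luminescence as a surrogate for cell number; IC50 interpolated from 4-parameter fit versus DMSO controls.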

For a further assay, the target named is T2, ErbB2 (Homo sapiens, UniProt P04626).
T2 construct: made in house; host or cells: baculovirus expression system
T2 sequence (P04626 23-1255): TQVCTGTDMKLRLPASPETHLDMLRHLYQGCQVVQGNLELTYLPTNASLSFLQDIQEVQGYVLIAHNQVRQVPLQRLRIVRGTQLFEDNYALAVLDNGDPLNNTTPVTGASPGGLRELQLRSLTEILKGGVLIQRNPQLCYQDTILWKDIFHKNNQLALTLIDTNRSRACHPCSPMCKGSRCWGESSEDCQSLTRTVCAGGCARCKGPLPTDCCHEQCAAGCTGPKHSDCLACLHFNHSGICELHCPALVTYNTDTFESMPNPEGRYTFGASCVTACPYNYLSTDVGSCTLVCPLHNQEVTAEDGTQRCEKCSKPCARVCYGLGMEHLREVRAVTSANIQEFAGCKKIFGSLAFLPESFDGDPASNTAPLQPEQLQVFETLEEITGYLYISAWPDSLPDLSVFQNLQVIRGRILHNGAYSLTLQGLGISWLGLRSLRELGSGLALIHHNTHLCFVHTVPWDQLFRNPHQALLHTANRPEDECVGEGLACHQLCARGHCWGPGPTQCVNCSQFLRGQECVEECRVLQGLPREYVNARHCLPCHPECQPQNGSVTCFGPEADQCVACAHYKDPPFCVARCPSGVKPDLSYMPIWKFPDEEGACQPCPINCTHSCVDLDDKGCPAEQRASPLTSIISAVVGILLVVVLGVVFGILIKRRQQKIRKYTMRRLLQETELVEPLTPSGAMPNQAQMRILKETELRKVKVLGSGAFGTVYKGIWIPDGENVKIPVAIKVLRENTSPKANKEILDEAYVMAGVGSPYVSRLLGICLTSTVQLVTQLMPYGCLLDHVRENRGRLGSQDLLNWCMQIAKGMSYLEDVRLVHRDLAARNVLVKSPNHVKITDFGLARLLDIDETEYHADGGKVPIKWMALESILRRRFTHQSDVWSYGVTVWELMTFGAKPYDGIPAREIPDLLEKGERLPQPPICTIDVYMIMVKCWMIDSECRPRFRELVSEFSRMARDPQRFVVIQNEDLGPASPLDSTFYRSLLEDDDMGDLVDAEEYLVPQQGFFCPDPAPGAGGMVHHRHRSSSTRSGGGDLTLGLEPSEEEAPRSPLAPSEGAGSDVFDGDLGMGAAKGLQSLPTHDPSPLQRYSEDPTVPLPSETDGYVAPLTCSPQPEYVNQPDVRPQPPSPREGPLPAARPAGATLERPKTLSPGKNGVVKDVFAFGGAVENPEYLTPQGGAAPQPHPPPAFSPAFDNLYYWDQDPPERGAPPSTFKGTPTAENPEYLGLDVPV
Put plainly: ErbB-2 substrate phosphorylation assay (HTRF). In kind it is biochemical. The essentials: as §4

The test system of the next assay is SK-MEL-3 tumor cells. Put plainly: Cell growth inhibition assay (CellTiter-Glo), SK-MEL-3. In kind it is cell-based, Human. As to conditions: for IC50: Homo sapiens, SK-MEL3. On the procedure:
as §1, §2, §3

A further assay concerns HT-29 tumor cells. As to the kind of experiment: Cell growth inhibition assay (CellTiter-Glo), HT-29. In kind it is cell-based, Human. Conditions: for IC50: Homo sapiens. On the procedure: as §1, §2, §3
The test system of another assay is HN5 tumor cells. Put plainly: Cell growth inhibition assay (CellTiter-Glo), HN5. In kind it is cell-based, Human. As to conditions: Homo sapiens, 72 h; 3 days incubation. On the procedure:
as §1, §2, §3

The subject of a further assay is Colo205 tumor cells. As to the kind of experiment: Cell growth inhibition assay (CellTiter-Glo), Colo205. As to conditions: Homo sapiens, COLO 205, 72 h; 3 days incubation. In kind it is cell-based, Human. In outline:
as §5

The subject of a further assay is A375P F11s. Put plainly: In vivo tumor growth, A375P F11s subcutaneous tumors. Also on record: species or system athymic mice; key: −: no response; +: growth delay (1-2×doubling); ++: growth delay (>2×doubling); +++: stable disease; ++++: partial regression; +++++: complete regression. Conditions: oral, 14-day period. On the procedure: (§6) A375P F11s and Colo205 cells were cultured in RPMI 1640 medium supplemented with 10% fetal bovine serum and 1% sodium pyruvate or 10% fetal bovine serum and without sodium pyruvate, respectively. Tumor cells (1.75×10^6 A375P F11 s or 5×10^6 Colo205) were implanted subcutaneously into the right flank of athymic mice on Day 1. To facilitate their growth, A375P F11s cells were suspended in Matrigel diluted 1:1 in phosphate-buffered saline before implantation. When tumors had reached approximately 200 mm^3 in volume (Day 19-22), tumor-bearing mice were randomized into study groups (n=7 or 8). Animals were dosed orally once or twice daily for a 14-day period. The compound of Example 19b was dosed in a 0.5% HPMC/0.2% Tween 80 pH 7-8 vehicle. Tumor growth was measured twice a week using calipers for the duration of the study. Tumor volumes were calculated as a product of (length×width×width)/2 and median values were used to compare groups. Complete regressions (CR) were defined as three consecutive tumor measurements of ≦13.5 mm^3. Partial regressions were defined as three consecutive measurements of ≦50% of starting tumor volume. Tumor growth delay was defined as the difference in time taken for treated and control groups to reach 1000 mm^3 (T-C1000).

Another assay has as its system Colo205. As to the kind of experiment: In vivo tumor growth, Colo205 subcutaneous tumors. Also on record: species or system athymic mice; key: −: no response; +: growth delay (1-2×doubling); ++: growth delay (>2×doubling); +++: stable disease; ++++: partial regression; +++++: complete regression. Conditions: oral, 14-day period. On the procedure:
as §6

The next assay addresses B-Raf (Homo sapiens, UniProt P15056). Put plainly: B-Raf Accelerated MEK ATPase assay (BRAMA), Method A or B. In kind it is biochemical. Conditions: Method B: final MEK 150 nM, single end point read. The essentials: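 Activated Raf plus non-phosphorylated MEK drives MEK-mediated ATP hydrolysis; ADP formation coupled via pyruvate kinase/lactate dehydrogenase to NADH oxidation. Method A read kinetically; Method B used 150 nM final MEK and a single end-point read.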

Counter-ions that a name gives are not always drawn. Marks after values point to notes of the source that are not given here.

B-Raf, sequence (P15056 whole entry): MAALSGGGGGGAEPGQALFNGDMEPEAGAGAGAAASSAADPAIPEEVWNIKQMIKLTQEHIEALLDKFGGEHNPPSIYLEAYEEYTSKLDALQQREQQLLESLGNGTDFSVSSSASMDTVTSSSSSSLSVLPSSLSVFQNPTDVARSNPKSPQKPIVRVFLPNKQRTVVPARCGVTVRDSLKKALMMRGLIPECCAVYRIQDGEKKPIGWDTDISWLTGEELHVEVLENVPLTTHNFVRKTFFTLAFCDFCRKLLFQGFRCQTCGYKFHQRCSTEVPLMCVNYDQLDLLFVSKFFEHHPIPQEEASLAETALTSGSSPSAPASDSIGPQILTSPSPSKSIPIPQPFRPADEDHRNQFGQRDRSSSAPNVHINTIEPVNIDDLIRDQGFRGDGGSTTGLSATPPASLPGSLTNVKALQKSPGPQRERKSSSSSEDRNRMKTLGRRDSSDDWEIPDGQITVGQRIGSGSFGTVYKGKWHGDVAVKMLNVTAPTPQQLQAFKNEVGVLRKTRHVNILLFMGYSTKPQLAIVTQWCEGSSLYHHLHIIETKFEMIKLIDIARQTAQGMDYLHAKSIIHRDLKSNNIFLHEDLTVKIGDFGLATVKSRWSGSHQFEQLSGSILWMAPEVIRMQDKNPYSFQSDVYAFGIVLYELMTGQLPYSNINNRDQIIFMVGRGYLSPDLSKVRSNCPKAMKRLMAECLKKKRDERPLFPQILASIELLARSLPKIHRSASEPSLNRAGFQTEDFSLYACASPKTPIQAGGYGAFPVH

As for `CCc1nc(-c2cccc(NS(=O)(=O)c3ccccc3)c2)c(-c2ccnc(Nc3cc(OC)c(OC)c(OC)c3)n2)s1` [Example 2, N-{3-[2-Ethyl-5-(2-{[3,4,5-tris(methyloxy)phenyl]amino}-4-pyrimidinyl)-1,3-thiazol-4-yl]phenyl}benzenesulfonamide], the IC50 in the assay with BT474 tumor cells is more than 1 µM; in the assay with A375P F11s tumor cells it was less than 0.1 µM; on EGFR it was more than 1 µM; in the assay on SK-MEL-28 tumor cells, less than 0.1 µM; against ErbB2, more than 1 µM; in the assay with SK-MEL-3 tumor cells, less than 0.1 µM. Besides, the IC50 with HT-29 tumor cells was 0.1 to 1 µM; in the assay on HN5 tumor cells it was 0.1 to 1 µM; in the assay on Colo205 tumor cells it was less than 0.1 µM.
For `COCCN1CCN(c2ccc(Nc3nccc(-c4sc(C(C)C)nc4-c4cccc(NS(=O)(=O)c5ccccc5)c4)n3)cn2)CC1.Cl` [Example 7], in the assay on A375P F11s tumor cells, the “Activity in A375P F11s Tumor Cells” value was “+++ (activity of less than 100 nM in A375P F11s tumor cells)”. In addition, in the assay with SK-MEL-3 tumor cells, the “Activity in SK-MEL-3 Tumor Cells” value was “+++ (activity of less than 100 nM in SK-MEL-3 tumor cells)”. In the assay with HT-29 tumor cells, the “Activity in HT-29 Tumor Cells” value is given as “+++ (activity of less than 100 nM in HT-29 tumor cells)”.
On to `COc1cc(N2CCN(CCS(C)(=O)=O)CC2)c(C)cc1Nc1nccc(-c2sc(C(C)C)nc2-c2cccc(NS(=O)(=O)c3c(F)cccc3F)c2)n1` [Example 19b, 2,6-Difluoro-N-(3-(2-(1-methylethyl)-5-(24(5-methyl-2-(methyloxy)-4-(4-[2-(methylsulfonyl)ethyl]-1-piperazinyl}phenyl)amino]-4-pyrimidinyl}-1,3-thiazol-4-yl)phenyl]benzenesulfonamide dihydrochloride], for which the Response entry in the assay with A375P F11s (1 mg/kg bid) is reported as “−”; in the assay with A375P F11s (3 mg/kg bid) it was “+”; with A375P F11s (10 mg/kg bid) it was “++”; in the assay with A375P F11s (30 mg/kg bid), “++++”; in the assay with A375P F11s (30 mg/kg qd, during dosing), “+++ (during dosing)*”; in the assay on Colo205 (30 mg/kg bid), “++”. In addition, the Response result with Colo205 (30 mg/kg qd) is “−”; with Colo205 (100 mg/kg bid), “++++”; in the assay on Colo205 (300 mg/kg qd), “++++”.
`CCc1nc(-c2ccc(F)c(NS(=O)(=O)c3ccccc3)c2)c(-c2ccnc(Nc3ccc(N4CCN(C(C)=O)CC4)nc3)n2)s1` [Example 66]: the IC50 was more than 1 µM in the assay on BT474 tumor cells; more than 1 µM against EGFR; 0.1 to 1 µM with SK-MEL-28 tumor cells; more than 1 µM at ErbB2; more than 1 µM in the assay on HT-29 tumor cells; more than 1 µM in the assay with HN5 tumor cells. The IC50 in the assay on Colo205 tumor cells is 0.1 to 1 µM; on B-Raf, less than 0.1 µM.
Consider `CC(C)(F)c1nc(-c2cccc(NS(=O)(=O)c3c(F)cccc3F)c2)c(-c2ccnc(Nc3ccc(N4CCN(CCF)CC4)c(F)c3)n2)s1` [Example 94], for which the concentration for half-maximal inhibition (IC50) in the assay with BT474 tumor cells is more than 1 µM; on EGFR, more than 1 µM; in the assay with SK-MEL-28 tumor cells, less than 0.1 µM; on ErbB2, more than 1 µM; with HT-29 tumor cells, less than 0.1 µM; with HN5 tumor cells, more than 1 µM. Besides, the IC50 in the assay with Colo205 tumor cells was less than 0.1 µM; against B-Raf it was 0.1 to 1 µM.
Regarding `COc1cc(C2CCN(CCS(C)(=O)=O)CC2)c(C)cc1Nc1nccc(-c2sc(C(C)C)nc2-c2cccc(NS(=O)(=O)c3c(F)cccc3F)c2)n1` [Example 115], the IC50 was 0.1 to 1 µM in the assay on A375P F11s tumor cells; more than 1 µM against EGFR; less than 0.1 µM in the assay on SK-MEL-28 tumor cells; more than 1 µM against ErbB2; 0.1 to 1 µM with SK-MEL-3 tumor cells; 0.1 to 1 µM with HT-29 tumor cells. In addition, the IC50 is 0.1 to 1 µM with Colo205 tumor cells and less than 0.1 µM against B-Raf.
As for `COc1c(NS(=O)(=O)c2c(F)cccc2F)cccc1-c1nc(N2CCOCC2)sc1-c1ccnc(Nc2ccc3c(c2)OCCO3)n1` [Example 170], the IC50 was 0.1 to 1 µM in the assay on A375P F11s tumor cells; more than 1 µM against EGFR; 0.1 to 1 µM in the assay with SK-MEL-28 tumor cells; more than 1 µM against ErbB2; 0.1 to 1 µM with SK-MEL-3 tumor cells; 0.1 to 1 µM with HT-29 tumor cells. Besides, the IC50 in the assay on Colo205 tumor cells and on B-Raf was less than 0.1 µM throughout.

Usually IC50 stands for the concentration that gives 50% inhibition.
